Results reported in PubChem BioAssay (NCI).
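Compound exposure: 48 hours, 5 concentrations, 96-well plates. The concentration for full growth arrest is given as TGI.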

How the values were obtained:
Test in all cases: inhibition of tumour cell growth, NCI panel, 48 h
[1] = test system: 786-0 renal
[2] = test system: A498 renal
[3] = test system: A549 NSCLC
[4] = test system: ACHN renal
[5] = test system: BT-549 breast
[6] = test system: CAKI-1 renal
[7] = test system: CCRF-CEM leukemia
[8] = test system: COLO 205 colon
[9] = test system: DU-145 prostate
[10] = test system: EKVX NSCLC
[11] = test system: HCT-116 colon
[12] = test system: HCT-15 colon
[13] = test system: HL-60(TB) leukemia
[14] = test system: HOP-62 NSCLC
[15] = test system: HOP-92 NSCLC
[16] = test system: HS 578T breast
[17] = test system: HT29 colon
[18] = test system: IGROV1 ovarian
[19] = test system: K-562 leukemia
[20] = test system: KM12 colon
[21] = test system: LOX IMVI melanoma
[22] = test system: M14 melanoma
[23] = test system: MALME-3M melanoma
[24] = test system: MCF7 breast
[25] = test system: MDA-MB-231 breast
[26] = test system: MDA-MB-435
[27] = test system: MDA-N
[28] = test system: MOLT-4 leukemia
[29] = test system: NCI-H226 lung
[30] = test system: NCI-H23 lung
[31] = test system: NCI-H460 lung
[32] = test system: NCI-H522 lung
[33] = test system: NCI/ADR-RES ovarian
[34] = test system: OVCAR-3 ovarian
[35] = test system: OVCAR-4 ovarian
[36] = test system: OVCAR-5 ovarian
[37] = test system: OVCAR-8 ovarian
[38] = test system: PC-3 prostate
[39] = test system: RPMI-8226 leukemia
[40] = test system: RXF 393 renal
[41] = test system: SF-268 CNS
[42] = test system: SF-295 CNS
[43] = test system: SF-539 CNS
[44] = test system: SK-MEL-2 melanoma
[45] = test system: SK-MEL-28 melanoma
[46] = test system: SK-MEL-5 melanoma
[47] = test system: SK-OV-3 ovarian
[48] = test system: SN12C renal
[49] = test system: SNB-19 CNS
[50] = test system: SNB-75 CNS
[51] = test system: SR leukemia
[52] = test system: SW-620 colon
[53] = test system: T-47D breast
[54] = test system: TK-10 renal
[55] = test system: U251 CNS
[56] = test system: UACC-257 melanoma
[57] = test system: UACC-62 melanoma
[58] = test system: UO-31 renal
[59] = test system: HCC-2998 colon

`CSc1nc2cc(S(=O)(=O)N3CCCCC3)ccc2s1` gave a TGI [1] of over 100 µM, a TGI [2] of over 100 µM and a TGI [3] of over 100 µM. For the same compound, the TGI [4] was over 100 µM, the TGI [5] was over 100 µM and the TGI [6] was over 100 µM. For the same compound, the TGI [7] was over 100 µM, the TGI [8] was over 100 µM and the TGI [9] was over 100 µM. It also gave a TGI [10] of over 100 µM, a TGI [11] of over 100 µM and a TGI [12] of over 100 µM. It also gave a TGI [13] of over 100 µM, a TGI [14] of over 100 µM and a TGI [15] of over 100 µM. For the same compound, the TGI [16] was over 100 µM, the TGI [17] was over 100 µM and the TGI [18] was over 100 µM. For the same compound, the TGI [19] was over 100 µM, the TGI [20] was over 100 µM and the TGI [21] was over 100 µM. For the same compound, the TGI [22] was over 100 µM, the TGI [23] was over 100 µM and the TGI [24] was over 100 µM. The TGI [25] was over 100 µM, the TGI [26] was over 100 µM and the TGI [27] was over 100 µM. It also gave a TGI [28] of over 100 µM, a TGI [29] of over 100 µM and a TGI [30] of over 100 µM. It also gave a TGI [31] of over 100 µM, a TGI [32] of over 100 µM and a TGI [33] of over 100 µM. It also gave a TGI [34] of over 100 µM, a TGI [35] of over 100 µM and a TGI [36] of over 100 µM. For the same compound, the TGI [37] was over 100 µM, the TGI [38] was over 100 µM and the TGI [39] was over 100 µM. It also gave a TGI [40] of over 100 µM, a TGI [41] of over 100 µM and a TGI [42] of over 100 µM. For the same compound, the TGI [43] was over 100 µM, the TGI [44] was over 100 µM and the TGI [45] was over 100 µM. For the same compound, the TGI [46] was over 100 µM, the TGI [47] was over 100 µM and the TGI [48] was over 100 µM. For the same compound, the TGI [49] was over 100 µM, the TGI [50] was over 100 µM and the TGI [51] was over 100 µM. For the same compound, the TGI [52] was over 100 µM, the TGI [53] was over 100 µM and the TGI [54] was over 100 µM. The TGI [55] was over 100 µM, the TGI [56] was over 100 µM and the TGI [57] was over 100 µM. The TGI [58] was over 100 µM.

With `O=C(Cc1ccccc1)N/N=C/c1ccccc1O` the TGI [1] was over 100 µM, the TGI [3] was over 100 µM and the TGI [4] was 61 µM. For the same compound, the TGI [5] was over 100 µM, the TGI [6] was over 100 µM and the TGI [7] was over 100 µM. For the same compound, the TGI [8] was over 100 µM, the TGI [9] was over 100 µM and the TGI [10] was over 100 µM. It also gave a TGI [59] of over 100 µM, a TGI [11] of over 100 µM and a TGI [12] of over 100 µM. The TGI [13] was over 100 µM, the TGI [15] was 54.8 µM and the TGI [16] was over 100 µM. The TGI [17] was over 100 µM, the TGI [18] was 81.8 µM and the TGI [19] was over 100 µM. For the same compound, the TGI [20] was over 100 µM, the TGI [21] was over 100 µM and the TGI [22] was 22.8 µM. For the same compound, the TGI [23] was 66.6 µM, the TGI [24] was over 100 µM and the TGI [25] was over 100 µM. It also gave a TGI [26] of over 100 µM, a TGI [27] of over 100 µM and a TGI [28] of over 100 µM. It also gave a TGI [29] of 81.5 µM, a TGI [30] of over 100 µM and a TGI [31] of 57.1 µM. It also gave a TGI [32] of over 100 µM, a TGI [33] of over 100 µM and a TGI [34] of over 100 µM. It also gave a TGI [35] of over 100 µM, a TGI [36] of over 100 µM and a TGI [37] of over 100 µM. For the same compound, the TGI [38] was over 100 µM, the TGI [39] was over 100 µM and the TGI [41] was over 100 µM. The TGI [42] was 85.2 µM, the TGI [43] was over 100 µM and the TGI [44] was over 100 µM. The TGI [45] was over 100 µM, the TGI [46] was 49.4 µM and the TGI [47] was over 100 µM. The TGI [48] was over 100 µM, the TGI [49] was over 100 µM and the TGI [50] was 59.8 µM. The TGI [51] was over 100 µM, the TGI [52] was over 100 µM and the TGI [53] was over 100 µM. The TGI [54] was over 100 µM, the TGI [55] was over 100 µM and the TGI [56] was 58 µM. For the same compound, the TGI [57] was 47.9 µM and the TGI [58] was 72.9 µM.
